Reference: ChEMBL document CHEMBL1158807, “Azadirachtin derivatives from seed kernels of Azadirachta excelsa” (J Nat Prod, 2005)

Assays:
Type in all cases: organism-based
Conditions in all cases: in vivo
[1] = system: Plutella xylostella; assay: Toxicity in Plutella xylostella larvae after 24 hrs
[2] = system: Plutella xylostella; assay: Toxicity in Plutella xylostella larvae after 72 hrs
[3] = system: Plutella xylostella; assay: Toxicity in Plutella xylostella larvae after 48 hrs
[4] = system: Plutella xylostella; assay: Toxicity in Plutella xylostella larvae after 96 hrs

| Compound | LD50 [1] | LD50 [2] | LD50 [3] | LD50 [4] |
| --- | --- | --- | --- | --- |
| C/C=C(\C)C(=O)O[C@H]1C[C@@H](OC(C)=O)[C@@]2(C(=O)OC)CO[C@H]3[C@@H](O)[C@@](C)([C@]45O[C@@]4(C)[C@H]4C[C@@H]5O[C@@H]5OC=C[C@@]54O)[C@@H]4[C@@H](O)OC[C@@]14[C@@H]32 | 5.75 µg/g | 1.38 µg/g | 4.2 µg/g | 0.75 µg/g |
| C/C=C(\C)C(=O)O[C@H]1C[C@@H](OC(C)=O)[C@@]2(C(=O)OC)CO[C@H]3[C@@H](O)[C@@](C)([C@]45O[C@@]4(C)[C@@H]4C[C@H]5O[C@@H]5OC=C[C@@]54O)[C@H]4[C@]1(CO[C@]4(O)C(=O)OC)[C@@H]32 [AZADIRACHTIN A] | 7.04 µg/g | 1.28 µg/g | 4.12 µg/g | 0.87 µg/g |
| C/C=C(\C)C(=O)O[C@@H]1C[C@H](O)[C@]23CO[C@H](C(=O)OC)[C@H]2[C@](C)([C@]24O[C@@]2(C)[C@H]2C[C@@H]4O[C@@H]4OC=C[C@@]42O)[C@H](O)[C@@H]2OC[C@@]1(C(=O)OC)[C@H]23 [AZADIRACHTIN B] | 4.85 µg/g | 1.56 µg/g | 2.26 µg/g | 1.06 µg/g |
| C/C=C(\C)C(=O)O[C@H]1C[C@@H](OC(C)=O)[C@@]2(C(=O)OC)CO[C@H]3[C@@H](O)[C@@](C)([C@]45O[C@@]4(C)[C@H]4C[C@@H]5O[C@@H]5OC=C[C@@]54O)[C@@H]4[C@@H](OC(C)=O)OC[C@@]14[C@@H]32 [AZADIRACHTIN L] | 10.27 µg/g | 5.39 µg/g | 7.89 µg/g | 1.92 µg/g |
| C/C=C(\C)C(=O)O[C@H]1C[C@@H](OC(C)=O)[C@@]2(C(=O)OC)CO[C@H]3[C@@H](O)[C@@](C)([C@]45O[C@@]4(C)[C@H]4C[C@@H]5O[C@@H]5OC=C[C@@]54O)[C@@H]4[C@@H](C(=O)OC)OC[C@@]14[C@@H]32 [AZADIRACHTIN M] | 8.46 µg/g | 4.23 µg/g | 4.84 µg/g | 1.3 µg/g |
| COC(=O)[C@H]1OC[C@@]23[C@@H](OC(=O)CC(C)C)C[C@@H](OC(C)=O)[C@@]4(C(=O)OC)CO[C@@H]([C@@H](O)[C@@](C)([C@]56O[C@@]5(C)[C@H]5C[C@@H]6O[C@@H]6OC=C[C@@]65O)[C@H]12)[C@@H]43 [AZADIRACHTIN O] | 3.92 µg/g | 1.19 µg/g | 1.92 µg/g | 0.79 µg/g |
| COC(=O)[C@@]12CO[C@H]3[C@@H](O)[C@@](C)([C@]45O[C@@]4(C)[C@H]4C[C@@H]5O[C@@H]5OC=C[C@@]54O)[C@@H]4[C@@H](O)OC[C@]4([C@@H](OC(=O)CC(C)C)C[C@H]1OC(C)=O)[C@@H]32 [AZADIRACHTIN P] | 2.19 µg/g | 1.19 µg/g | 1.73 µg/g | 0.79 µg/g |
| COC(=O)[C@H]1OC[C@@]23[C@@H](OC(C)=O)C[C@@H](OC(C)=O)[C@@]4(C(=O)OC)CO[C@@H]([C@@H](O)[C@@](C)([C@]56O[C@@]5(C)[C@H]5C[C@@H]6O[C@@H]6OC=C[C@@]65O)[C@H]12)[C@@H]43 [AZADIRACHTIN Q] | 5.95 µg/g | 1.4 µg/g | 1.89 µg/g | 1.1 µg/g |
| COC(=O)[C@H]1OC[C@]23[C@@H]1[C@](C)([C@]14O[C@@]1(C)[C@H]1C[C@@H]4O[C@@H]4OC=C[C@@]41O)[C@H](O)[C@@H]1OC[C@](C(=O)OC)([C@H](O)C[C@@H]2O)[C@H]13 [AZADIRACHTOL] | 4.88 µg/g | 2.35 µg/g | 3.28 µg/g | 1.78 µg/g |
